The text below walks through data of patent publication US7803795B2, “Phthalazine derivatives as parp inhibitors” (Janssen Pharmaceutica N.V., priority 2004, dated 2010).

Tested on in one series: not given
Test: not given
Details: not given
A word on the melting point: it is the temperature of the solid-liquid transition. The compound `CCOC(=O)N1[C@@H]2CC[C@H]1C[C@H](Nc1n[nH]c(=O)c3ccccc13)C2` [Compound 11] showed a melting point of 218.6 °C. Same read-out and setting: in the case of `O=c1[nH]nc(C2CCN(Cc3ccccc3)CC2)c2ccccc12` [Compound 1] it was 222 °C.

The next series deals with T1, PARP-1 enzyme (Homo sapiens, UniProt P09874).
T1 construct: made in house
T1 sequence (P09874 whole entry): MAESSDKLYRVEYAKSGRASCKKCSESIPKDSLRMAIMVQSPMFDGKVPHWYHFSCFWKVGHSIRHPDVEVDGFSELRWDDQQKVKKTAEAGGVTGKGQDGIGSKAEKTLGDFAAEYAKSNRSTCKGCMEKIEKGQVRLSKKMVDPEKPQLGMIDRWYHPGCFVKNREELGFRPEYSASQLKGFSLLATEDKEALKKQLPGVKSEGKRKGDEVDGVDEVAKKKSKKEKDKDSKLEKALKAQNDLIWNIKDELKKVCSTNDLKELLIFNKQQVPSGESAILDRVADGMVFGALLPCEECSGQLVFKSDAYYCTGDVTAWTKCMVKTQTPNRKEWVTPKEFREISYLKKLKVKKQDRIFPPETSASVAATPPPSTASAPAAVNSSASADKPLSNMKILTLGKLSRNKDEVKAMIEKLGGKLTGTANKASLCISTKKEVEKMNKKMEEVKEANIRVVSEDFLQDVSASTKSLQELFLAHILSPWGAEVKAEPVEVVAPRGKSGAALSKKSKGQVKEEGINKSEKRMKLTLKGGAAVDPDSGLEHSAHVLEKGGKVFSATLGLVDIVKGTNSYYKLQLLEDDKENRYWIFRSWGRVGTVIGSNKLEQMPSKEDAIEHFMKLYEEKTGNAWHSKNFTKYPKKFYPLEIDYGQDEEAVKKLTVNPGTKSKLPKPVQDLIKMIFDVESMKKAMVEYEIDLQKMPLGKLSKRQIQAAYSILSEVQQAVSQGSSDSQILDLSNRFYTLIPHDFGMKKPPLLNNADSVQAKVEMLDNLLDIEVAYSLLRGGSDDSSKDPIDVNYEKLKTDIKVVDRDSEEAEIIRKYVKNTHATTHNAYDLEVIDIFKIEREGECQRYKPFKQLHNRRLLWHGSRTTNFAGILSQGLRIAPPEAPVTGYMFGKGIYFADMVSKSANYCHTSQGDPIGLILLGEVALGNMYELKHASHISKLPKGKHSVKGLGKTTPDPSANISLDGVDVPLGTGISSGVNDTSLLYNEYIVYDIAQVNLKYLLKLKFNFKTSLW
Description: in vitro filtration assay for PARP-1 inhibitory activity. The note with it: [32P]-NAD, histones, nicked DNA; dose-response 10^-5 M to 10^-8 M; read-out: in vitro filter assay PARP-1 pIC50 (converted). It counts as biochemical. As to the method:
In Vitro Filtration Assay for PARP-1 Inhibitory Activity
Compounds of the present invention were tested in an in vitro filtration assay assessing PARP-1 activity (triggered in the presence of nicked DNA) by means of its histone poly (ADP-ribosylation activity using [^32P]-NAD as ADP-ribosyl donor. The radioactive ribosylated histones were precipitated by trichloroacetic acid (TCA) in 96-well filterplates and the incorporated [^32P] measured using a scintillation counter
A mixture of histones (stock solution: 5 mg/ml in H2O), NAD^+ (stock solution: 100 mM in H2O), and [^32P]-NAD^+ in incubation buffer (50 mM Tris/HCl, pH 8; 0.2 mM DTT; 4 mM MgCl2) was made. A mixture of the PARP-1 enzyme (5-10 μg/ml) and nicked DNA was also made. The nicked DNA was prepared as described in the in vitro SPA for PARP-1 inhibitory activity. Seventy-five μl of the PARP-1 enzyme/DNA mixture together with 1 μl of compound in DMSO and 25 μl of histones-NAD^+/[^32P]-NAD^+ mixture was added per well of a 96-well filterplate (0.45 μm, supplier Millipore). The final concentrations in the incubation mixture were 2 μg/ml for the histones, 0.1 mM for the NAD^+, […] (0.5 μC) for the [^32P]-NAD^+ and 2 μg/ml for the nicked DNA. Plates were incubated for 15 min. at room temperature and the reaction was terminated by the addition of 10 μl ice cold 100% TCA followed by the addition of 10 μl ice-cold BSA solution (1% in H2O). The protein fraction was allowed to precipitate for 10 min. at 4° C. and plates were vacuum filtered. The plates were subsequently washed with, for each well, 1 ml of 10% ice cold TCA, 1 ml of 5% ice cold TCA and 1 ml of 5% TCA at room temperature. Finally 100 μl of scintillation solution (Microscint 40, Packard) was added to each well and the plates were transferred to a TopCountNXT™ (supplier: Packard) for scintillation counting and values were expressed as counts per minute (cpm). For each experiment, controls (containing PARP-1 enzyme and DMSO without compound), a blank incubation (containing DMSO but no PARP-1 enzyme or compound) and samples (containing PARP-1 enzyme and compound dissolved in DMSO) were run in parallel. All compounds tested were dissolved and eventually further diluted in DMSO. In first instance, compounds were tested at a concentration of 10^−5M. […] In each test, the blank value was subtracted from both the control and the sample values. The control sample represented maximal PARP-1 enzyme activity. For each sample, the amount of cpm was expressed as a percentage of the mean cpm value of the controls. When appropriate, IC50-values (concentration of the drug, needed to reduce the PARP-1 enzyme activity to 50% of the control) were computed using linear interpolation between the experimental points just above and below the 50% level. Herein the effects of test compounds are expressed as pIC50 (the negative log value of the IC50-value). As a reference compound, 4-amino-1,8-naphthalimide was included to validate the filtration assay.
As for `O=c1[nH]nc(N[C@@H]2C[C@H]3CC[C@@H](C2)N3CCCC(c2ccc(F)cc2)c2ccc(F)cc2)c2ccccc12` [Compound 3], the IC50 was 204 nM. Take `Cc1nc2sccn2c(=O)c1CCN1CCN(c2nnc(C)c3ccccc23)CC1` [Compound 73]: the IC50 was 515 nM. Still for that read-out and setting: in the case of `O=c1[nH]nc(NC2CCN(CCCCOc3ccccc3)CC2)c2ccccc12` [Compound 46] it was 134 nM; in that of `CN(c1nc2ccccc2s1)C1CCN(c2nnc(Cl)c3ccccc23)CC1` [Compound 61], 296 nM. Turning to `CCOC(=O)N1CCCC(Nc2n[nH]c(=O)c3ccccc23)CC1` (stereo not shown) [Compound 50], the IC50 is 643 nM.

Consider `O=c1[nH]nc(NCC2CCCN(CCCC(c3ccc(F)cc3)c3ccc(F)cc3)C2)c2ccccc12` (stereo not shown) [Compound 49], for which the IC50 is 516 nM. For `O=c1[nH]nc(C2CCN(CCCCOc3ccccc3)CC2)c2ccccc12` [Compound 68], the IC50 is 50 nM. In the case of `O=c1[nH]nc(C2CCN(c3ncccn3)CC2)c2ccccc12` [Compound 69], the IC50 is 125 nM. For `Cc1nc2ccccn2c(=O)c1CCN1CCN(c2nnc(C)c3ccccc23)CC1` [Compound 72], the IC50 is 1050 nM. Consider `O=c1[nH]nc(NC2CCCN(Cc3ccccc3)C2)c2ccccc12` (stereo not shown) [Compound 53], for which the IC50 is 217 nM. `O=c1[nH]nc(C2CCN(C/C=C/c3ccccc3)CC2)c2ccccc12` [Compound 66]: the IC50 is 96.4 nM. The same measure, in the same setting: in the case of `CCOC(=O)N1CCC(Nc2n[nH]c(=O)c3ccccc23)C1` (stereo not shown) [Compound 48] it was 163 nM. With `O=c1[nH]nc(C2CCN(CCCC(c3ccc(F)cc3)c3ccc(F)cc3)CC2)c2ccccc12` [Compound 67], the IC50 was 233 nM.

For `Clc1nnc(NC2CCN(CCCCOc3ccccc3)CC2)c2ccccc12` [Compound 59], the IC50 is 813 nM. Consider `O=c1[nH]nc(C2CCNCC2)c2ccccc12` [Compound 4], for which the IC50 is 70.8 nM. On to `Fc1ccc(C(CCCN2CCN(c3nnc(Cl)c4ccccc34)CC2)c2ccc(F)cc2)cc1` [Compound 57], for which the IC50 was 472 nM. Take `CCOC(=O)N1CCN(c2nnc(Cl)c3ccccc23)CC1` [Compound 58]: the IC50 was 316 nM. `CCOC(=O)N1CCC(Nc2n[nH]c(=O)c3ccccc23)CC1` [Compound 56]: the IC50 is 774 nM. The same measure, in the same setting: the result for `CCOC(=O)N1[C@@H]2CC[C@H]1C[C@H](Nc1n[nH]c(=O)c3ccccc13)C2` [Compound 11] reads 30 nM; that for `O=c1[nH]nc(NC2CCCN(CCCC(c3ccc(F)cc3)c3ccc(F)cc3)CC2)c2ccccc12` (stereo not shown) [Compound 30], 230 nM; that for `O=c1[nH]nc(C2CCN(Cc3ccccc3)CC2)c2ccccc12` [Compound 1], 55 nM. `O=c1[nH]nc(C2CCN(CCCOc3ccc(F)cc3)CC2)c2ccccc12` [Compound 13]: the IC50 is 19.1 nM.

For the compound `Cc1nnc(N2CCN(CCn3c(=O)[nH]c4ccccc4c3=O)CC2)c2ccccc12` [Compound 70], the IC50 was 268 nM. As for `O=c1[nH]nc(NCC2CCCN(Cc3ccccc3)C2)c2ccccc12` (stereo not shown) [Compound 44], the IC50 is 221 nM.

As to `Cc1nc2scc(C)n2c(=O)c1CCN1CCN(c2nnc(C)c3ccccc23)CC1` [Compound 74], the IC50 was 610 nM.

Regarding `O=c1[nH]nc(NC2CCN(C[C@@H](O)[C@@H]3CCc4ccccc4O3)CC2)c2ccccc12` (relative stereo) [Compound 27], the IC50 is 215 nM. With `O=c1[nH]nc(NC2CCN(C/C=C/c3ccccc3)CC2)c2ccccc12` [Compound 65], the IC50 was 91.2 nM.

Regarding `CCOC(=O)N1[C@@H]2CC[C@H]1C[C@H](Nc1nnc(Cl)c3ccccc13)C2` [Compound 24], the IC50 was 388 nM. On to `COc1ccc(CCN2CCC(Nc3n[nH]c(=O)c4ccccc34)CC2)cc1` [Compound 63], for which the IC50 is 146 nM. As to `Cc1nc2n(c(=O)c1CCN1CCN(c3nnc(C)c4ccccc34)CC1)CCCS2` [Compound 76], the IC50 is 413 nM. Turning to `O=c1[nH]nc(N2CCC(c3cccc(C(F)(F)F)c3)C2)c2ccccc12` (stereo not shown) [Compound 55], the IC50 is 210 nM. Consider `O=c1[nH]nc(NC2CCCNCC2)c2ccccc12` (stereo not shown) [Compound 34], for which the IC50 is 49.4 nM. Turning to `Cc1nc2n(c(=O)c1CCN1CCN(c3nnc(C)c4ccccc34)CC1)CCS2` [Compound 75], the IC50 was 361 nM.

For the compound `Clc1nnc(NC2CCN(Cc3ccccc3)C2)c2ccccc12` (stereo not shown) [Compound 12], the IC50 is 188 nM. For the compound `O=c1[nH]nc(N[C@@H]2C[C@H]3CC[C@@H](C2)N3)c2ccccc12` [Compound 15], the IC50 was 35.5 nM. As to `O=c1[nH]nc(NC2CCN(Cc3ccccc3)C2)c2ccccc12` (stereo not shown) [Compound 51], the IC50 was 300 nM. As to `Cc1nnc(N2CCN(CCn3c(=O)[nH]c4ccccc43)CC2)c2ccccc12` [Compound 71], the IC50 is 533 nM. For `Cc1nnc(N2CCN(CCCC(c3ccc(F)cc3)c3ccc(F)cc3)CC2)c2ccccc12` [Compound 29], the IC50 was 302 nM. Regarding `Clc1nnc(N2CCN(c3ccccc3)CC2)c2ccccc12` [Compound 77], the IC50 was 168 nM.

Regarding `CCOC(=O)N1CCC(c2n[nH]c(=O)c3ccccc23)CC1` [Compound 25], the IC50 is 240 nM.

As for `O=c1[nH]nc(N2CCN(CCCC(c3ccc(F)cc3)c3ccc(F)cc3)CC2)c2ccccc12` [Compound 52], the IC50 is 356 nM.
